Experimental data taken from patent US20130071933A1, “CITRUS SHOOT REGENERATION COMPOSITIONS, METHODS, AND SYSTEMS” (priority 2011, published 2013).
Entries after “also recorded” stand apart in the source; their conditions may differ.

What was measured:
[1] = tested on: shoots regenerated from mature stem segments of sweet orange cv. Hamlin; experiment: Grafting of regenerated adventitious shoots onto rough lemon rootstock: survival and growth; assay type: in vivo, Citrus sinensis
Source text: Adventitious shoots (0.5 cm long) were excised from mature stem segments and grafted in vivo onto rough lemon seedlings. Briefly, rough lemon seedlings (approx. 25-30 cm in height) were decapitated (approx. 15 cm above ground) where the diameter of the stem equals the width of the shoot (2-3 mm). A 5 mm deep longitudinal cut is made into the cambium layer of the seedling into which the shoot is wedged and the grafted area sealed with Parafilm. The shoot is wounded, each side, by removing approx. 1 mm of the surface with a scalpel blade in the same plane as the exposed cambium layer to promote growth of the new shoot. The whole plant is covered with a clear plastic bag and maintained in the light (100 μm^−2s^−1 cool light fluorescent tubes) under a 16 h photoperiod at 22-24° C. After approx. 21 d, the grafted shoot starts to grow and the bag is gradually opened to aid acclimatization. The plant is then transferred to the greenhouse approx. 28 d later and allowed to grow to maturity.
Shoots (approx. 1 cm in length) were excised from explants and grafted onto a rough lemon rootstock to allow growth and development. […] This phenotype of growth and development is typical of a mature citrus tree as observed in previous studies on the tissue culture of mature internodal stem segments (Cervera et al., 1998, Transgenic Res 7: 51-59).

[2] = tested on: mature internodal stem segments of sweet orange cv. Hamlin; experiment: Culture of explants on DBA3 medium with surfactant: fresh weight and shoot regeneration; assay type: cell-based, Citrus sinensis; conditions: for % Organogenic explants / Total shoot yield: 60 explants/treatment
Description: Mature budwood collected from C. sinensis cv. Hamlin from virus-free greenhouse material were grafted onto seedlings of rough lemon (C. jambhiri Lush.) and maintained in a greenhouse (20-27° C.). The developing shoots were allowed to grow as one, two and three flushes, each used separately for experimental studies. Shoots (approx. 20 cm in length) were pruned from each plant and used for explant preparation. The stems were stripped of their thorns and leaves, surface-sterilized in 70% ethanol (1 min), disinfected for 20 min in 20% (v/v) domestic bleach solution containing 0.2% (v/v) Tween® 20 and washed five times with sterile distilled water. Internodal stem explants were cut transversely into 1 cm long segments and placed horizontally onto the culture media with the cut ends submerged (approx. 2 mm) into the medium. […] The non-ionic surfactants were dissolved in sterile-distilled water and then filter-sterilized before adding to the medium after autoclaving, along with filter-sterilized Gamborg B5 vitamins and de-proteinized coconut water. Cultures were maintained in the light (60 μm m^−2s^−1 cool light fluorescent tubes) under a 16 h photoperiod at 28±2° C. and subcultured at 21-28 d intervals. After 10 weeks, the weight of each explant and the number of adventitious shoots was recorded. This experiment was repeated for each of the first three flushes of shoots to compare growth and shoot regeneration efficiencies.

[3] = tested on: cotyledonary explants of Jute; conditions: cited from earlier work
[4] = shoots from explants cultured at 0.001-0.1% (v/v), rough lemon rootstock
[5] = Flush 1, surfactant 0.001%, 10 weeks of culture
[6] = Flush 1, surfactant 0.01%, 10 weeks of culture
[7] = Flush 1, surfactant 0.1%, 10 weeks of culture
[8] = Flush 1, surfactant 0.5%, 10 weeks of culture
[9] = Flush 2, surfactant 0.001%, 10 weeks of culture
[10] = Flush 2, surfactant 0.01%, 10 weeks of culture
[11] = Flush 2, surfactant 0.1%, 10 weeks of culture
[12] = Flush 2, surfactant 0.5%, 10 weeks of culture
[13] = Flush 3, surfactant 0.001%, 10 weeks of culture
[14] = Flush 3, surfactant 0.01%, 10 weeks of culture
[15] = Flush 3, surfactant 0.1%, 10 weeks of culture
[16] = Flush 3, surfactant 0.5%, 10 weeks of culture

polyethylene glycol p-(1,1,3,3-tetramethylbutyl)-phenyl ether [Triton® X-100]
shoots survived / shoots grafted [1, 4]: 5/15
survival rate of shoots following grafting [1, 4]: 33%
Mean fresh weight ([2]; 0.001% (v/v) in DBA3, first flush): 347±24 mg f. wt.
number of shoots per explant and number of explants giving shoots compared to the control ([2]; 0.001% (v/v) in DBA3, first two flushes): lower compared to the control
Mean fresh weight ([2]; 0.001% (v/v) in DBA3, second flush): 309±23 mg f. wt.
fresh weight gain, number of shoots per explant and number giving shoots compared to DBA3 without surfactant ([2]; 0.1-0.5% (v/v) in DBA3): significantly (P<0.05) reduced
shoot regeneration ([2]; 0.5% (v/v) in DBA3): failed to regenerate shoots
Mean fresh weight [2, 5]: 347 ± 24 mg
Mean number of shoots per explant [2, 5]: 0.13 ± 0.06
% Organogenic explants [2, 5]: 10%
Total shoot yield [2, 5]: 8
Mean fresh weight [2, 6]: 254 ± 13 mg
Mean number of shoots per explant [2, 6]: 0.18 ± 0.07
% Organogenic explants [2, 6]: 13.5%
Total shoot yield [2, 6]: 11
Mean fresh weight [2, 7]: 153 ± 7 mg
Mean number of shoots per explant [2, 7]: 0.08 ± 0.04
% Organogenic explants [2, 7]: 6.5%
Total shoot yield [2, 7]: 5
Mean fresh weight [2, 8]: 75 ± 3 mg
Mean number of shoots per explant [2, 8]: 0.00 ± 0.00
% Organogenic explants [2, 8]: 0%
Total shoot yield [2, 8]: 0
Mean fresh weight [2, 9]: 309 ± 23 mg
Mean number of shoots per explant [2, 9]: 0.07 ± 0.03
% Organogenic explants [2, 9]: 6.5%
Total shoot yield [2, 9]: 4
Mean fresh weight [2, 10]: 264 ± 14 mg
Mean number of shoots per explant [2, 10]: 0.10 ± 0.05
% Organogenic explants [2, 10]: 6.5%
Total shoot yield [2, 10]: 6
Mean fresh weight [2, 11]: 158 ± 7 mg
Mean number of shoots per explant [2, 11]: 0.05 ± 0.03
% Organogenic explants [2, 11]: 5%
Total shoot yield [2, 11]: 3
Mean fresh weight [2, 12]: 85 ± 4 mg
Mean number of shoots per explant [2, 12]: 0.00 ± 0.00
% Organogenic explants [2, 12]: 0%
Total shoot yield [2, 12]: 0
Mean fresh weight [2, 13]: 135 ± 7 mg
Mean number of shoots per explant [2, 13]: 0.08 ± 0.04
% Organogenic explants [2, 13]: 6.5%
Total shoot yield [2, 13]: 5
Mean fresh weight [2, 14]: 126 ± 6 mg
Mean number of shoots per explant [2, 14]: 0.02 ± 0.02
% Organogenic explants [2, 14]: 1.5%
Total shoot yield [2, 14]: 1
Mean fresh weight [2, 15]: 89 ± 3 mg
Mean number of shoots per explant [2, 15]: 0.00 ± 0.00
% Organogenic explants [2, 15]: 0%
Total shoot yield [2, 15]: 0
Mean fresh weight [2, 16]: 61 ± 8 mg
Mean number of shoots per explant [2, 16]: 0.00 ± 0.00
% Organogenic explants [2, 16]: 0%
Total shoot yield [2, 16]: 0
growth of explants ([3]; 0.001% (v/v)): increased also the growth
state of shoots after transfer to shoot elongation medium ([3]; 0.001%, after 14-21 days): became necrotic
shoot regeneration of jute cotyledons [3]: able to promote shoot regeneration
growth and regeneration of explants ([3]; concentrations above 0.001% (v/v)): inhibited the growth and regeneration

polyoxyethylene (20) sorbitan monolaurate [Tween® 20]
growth of vitrified shoots following grafting ([1]; shoots from explants cultured on DBA3 with surfactant (0.01-0.5% (v/v))): failed to graft successfully in vivo; also recorded: all failed to initiate growth following grafting
Mean fresh weight [2, 5]: 273 ± 15 mg
Mean number of shoots per explant [2, 5]: 0.23 ± 0.08
% Organogenic explants [2, 5]: 15%
Total shoot yield [2, 5]: 14
Mean fresh weight [2, 6]: 218 ± 12 mg
Mean number of shoots per explant [2, 6]: 0.25 ± 0.07
% Organogenic explants [2, 6]: 18.5%
Total shoot yield [2, 6]: 15
Mean fresh weight [2, 7]: 269 ± 13 mg
Mean number of shoots per explant [2, 7]: 0.31 ± 0.08
% Organogenic explants [2, 7]: 23%
Total shoot yield [2, 7]: 19
Mean fresh weight [2, 8]: 253 ± 12 mg
Mean number of shoots per explant [2, 8]: 0.18 ± 0.06
% Organogenic explants [2, 8]: 15%
Total shoot yield [2, 8]: 11
Mean fresh weight [2, 9]: 240 ± 15 mg
Mean number of shoots per explant [2, 9]: 0.22 ± 0.07
% Organogenic explants [2, 9]: 15%
Total shoot yield [2, 9]: 13
Mean fresh weight [2, 10]: 260 ± 13 mg
Mean number of shoots per explant [2, 10]: 0.20 ± 0.07
% Organogenic explants [2, 10]: 13.5%
Total shoot yield [2, 10]: 12
Mean fresh weight [2, 11]: 302 ± 19 mg
Mean number of shoots per explant [2, 11]: 0.22 ± 0.07
% Organogenic explants [2, 11]: 17%
Total shoot yield [2, 11]: 13
Mean fresh weight [2, 12]: 250 ± 13 mg
Mean number of shoots per explant [2, 12]: 0.17 ± 0.06
% Organogenic explants [2, 12]: 13.5%
Total shoot yield [2, 12]: 10
Mean fresh weight [2, 13]: 193 ± 8 mg
Mean number of shoots per explant [2, 13]: 0.07 ± 0.03
% Organogenic explants [2, 13]: 7%
Total shoot yield [2, 13]: 4
Mean fresh weight [2, 14]: 161 ± 7 mg
Mean number of shoots per explant [2, 14]: 0.05 ± 0.03
% Organogenic explants [2, 14]: 5%
Total shoot yield [2, 14]: 3
Mean fresh weight [2, 15]: 155 ± 7 mg
Mean number of shoots per explant [2, 15]: 0.08 ± 0.04
% Organogenic explants [2, 15]: 8.5%
Total shoot yield [2, 15]: 5
Mean fresh weight [2, 16]: 130 ± 6 mg
Mean number of shoots per explant [2, 16]: 0.05 ± 0.03
% Organogenic explants [2, 16]: 5%
Total shoot yield [2, 16]: 3
weight of explants compared to medium without surfactant ([2]; all three flushes of growth): no significant difference
fresh weight gain ([3]; 0.001-0.01% (v/v)): significantly increased
number of regenerants ([3]; 0.001-0.01% (v/v)): significantly increased
growth ([3]; 0.5% (v/v)): inhibitory to growth
shoot production ([3]; 0.5% (v/v)): inhibited
shoot regeneration of jute cotyledons [3]: able to promote shoot regeneration
